Results taken from PubChem BioAssay AID1259407 (Chemical Carcinogenesis Research Information System (CCRIS), 2018).
The source made the active and inactive calls. How the calls were made is not given here.

Test system: CCRIS mutagenicity, Ames/micronucleus/aberration tests
Test: CCRIS mutagenicity studies
[1] = Test System: AMES SALMONELLA TYPHIMURIUM, Strain/Indicator: TA98, Metabolic Activation: NONE, Method: STANDARD PLATE
[2] = Test System: AMES SALMONELLA TYPHIMURIUM, Strain/Indicator: TA98, Metabolic Activation: RAT, LIVER, S-9, AROCLOR 1254, Method: STANDARD PLATE
[3] = Test System: AMES SALMONELLA TYPHIMURIUM, Strain/Indicator: TA100, Metabolic Activation: RAT, LIVER, S-9, AROCLOR 1254, Method: STANDARD PLATE

Measured: mutagenic call

CN(C)CCO
inactive: Test System: AMES SALMONELLA TYPHIMURIUM, Strain/Indicator: TA97, Metabolic Activation: HAMSTER, LIVER, AROCLOR 1254 (10 OR 30%), Method: PREINCUBATION inactive; negative | Test System: AMES SALMONELLA TYPHIMURIUM, Strain/Indicator: TA97, Metabolic Activation: NONE, Method: PREINCUBATION inactive; negative | Test System: AMES SALMONELLA TYPHIMURIUM, Strain/Indicator: TA97, Metabolic Activation: RAT, LIVER, S-9, AROCLOR 1254 (10 OR 30%), Method: PREINCUBATION inactive; negative | Test System: AMES SALMONELLA TYPHIMURIUM, Strain/Indicator: TA98, Metabolic Activation: HAMSTER, LIVER, S-9, AROCLOR 1254 (10%), Method: PREINCUBATION inactive; negative | Test System: AMES SALMONELLA TYPHIMURIUM, Strain/Indicator: TA98, Metabolic Activation: HAMSTER, LIVER, S-9, AROCLOR 1254 (30%), Method: PREINCUBATION inactive; negative | Test System: AMES SALMONELLA TYPHIMURIUM, Strain/Indicator: TA98, Metabolic Activation: NONE, Method: PREINCUBATION inactive; negative | [1] inactive; negative | Test System: AMES SALMONELLA TYPHIMURIUM, Strain/Indicator: TA98, Metabolic Activation: RAT, LIVER, S-9, AROCLOR 1254 (10%), Method: PREINCUBATION inactive; negative | Test System: AMES SALMONELLA TYPHIMURIUM, Strain/Indicator: TA98, Metabolic Activation: RAT, LIVER, S-9, AROCLOR 1254 (30%), Method: PREINCUBATION inactive; negative | [2] inactive; negative | Test System: AMES SALMONELLA TYPHIMURIUM, Strain/Indicator: TA100, Metabolic Activation: HAMSTER, LIVER, S-9, AROCLOR 1254 (10%), Method: PREINCUBATION inactive; negative | Test System: AMES SALMONELLA TYPHIMURIUM, Strain/Indicator: TA100, Metabolic Activation: HAMSTER, LIVER, S-9, AROCLOR 1254 (30%), Method: PREINCUBATION inactive; negative | Test System: AMES SALMONELLA TYPHIMURIUM, Strain/Indicator: TA100, Metabolic Activation: NONE, Method: PREINCUBATION inactive; negative | Test System: AMES SALMONELLA TYPHIMURIUM, Strain/Indicator: TA100, Metabolic Activation: NONE, Method: STANDARD PLATE inactive; negative | Test System: AMES SALMONELLA TYPHIMURIUM, Strain/Indicator: TA100, Metabolic Activation: RAT, LIVER, S-9, AROCLOR 1254 (10%), Method: PREINCUBATION inactive; negative | Test System: AMES SALMONELLA TYPHIMURIUM, Strain/Indicator: TA100, Metabolic Activation: RAT, LIVER, S-9, AROCLOR 1254 (30%), Method: PREINCUBATION inactive; negative | [3] inactive; negative | Test System: AMES SALMONELLA TYPHIMURIUM, Strain/Indicator: TA1535, Metabolic Activation: HAMSTER, LIVER, S-9, AROCLOR 1254 (10%), Method: PREINCUBATION inactive; negative | Test System: AMES SALMONELLA TYPHIMURIUM, Strain/Indicator: TA1535, Metabolic Activation: HAMSTER, LIVER, S-9, AROCLOR 1254 (30%), Method: PREINCUBATION inactive; negative | Test System: AMES SALMONELLA TYPHIMURIUM, Strain/Indicator: TA1535, Metabolic Activation: NONE, Method: PREINCUBATION inactive; negative | Test System: AMES SALMONELLA TYPHIMURIUM, Strain/Indicator: TA1535, Metabolic Activation: NONE, Method: STANDARD PLATE inactive; negative | Test System: AMES SALMONELLA TYPHIMURIUM, Strain/Indicator: TA1535, Metabolic Activation: RAT, LIVER, S-9, AROCLOR 1254 (10%), Method: PREINCUBATION inactive; negative | Test System: AMES SALMONELLA TYPHIMURIUM, Strain/Indicator: TA1535, Metabolic Activation: RAT, LIVER, S-9, AROCLOR 1254 (30%), Method: PREINCUBATION inactive; negative | Test System: AMES SALMONELLA TYPHIMURIUM, Strain/Indicator: TA1535, Metabolic Activation: RAT, LIVER, S-9, AROCLOR 1254, Method: STANDARD PLATE inactive; negative | Test System: AMES SALMONELLA TYPHIMURIUM, Strain/Indicator: TA1537, Metabolic Activation: HAMSTER, LIVER, S-9, AROCLOR 1254 (10%), Method: PREINCUBATION inactive; negative | Test System: AMES SALMONELLA TYPHIMURIUM, Strain/Indicator: TA1537, Metabolic Activation: HAMSTER, LIVER, S-9, AROCLOR 1254 (30%), Method: PREINCUBATION inactive; negative | Test System: AMES SALMONELLA TYPHIMURIUM, Strain/Indicator: TA1537, Metabolic Activation: NONE, Method: PREINCUBATION inactive; negative | Test System: AMES SALMONELLA TYPHIMURIUM, Strain/Indicator: TA1537, Metabolic Activation: NONE, Method: STANDARD PLATE inactive; negative | Test System: AMES SALMONELLA TYPHIMURIUM, Strain/Indicator: TA1537, Metabolic Activation: RAT, LIVER, S-9, AROCLOR 1254 (10%), Method: PREINCUBATION inactive; negative | Test System: AMES SALMONELLA TYPHIMURIUM, Strain/Indicator: TA1537, Metabolic Activation: RAT, LIVER, S-9, AROCLOR 1254 (30%), Method: PREINCUBATION inactive; negative | Test System: AMES SALMONELLA TYPHIMURIUM, Strain/Indicator: TA1537, Metabolic Activation: RAT, LIVER, S-9, AROCLOR 1254, Method: STANDARD PLATE inactive; negative | Test System: AMES SALMONELLA TYPHIMURIUM, Strain/Indicator: TA1538, Metabolic Activation: NONE, Method: STANDARD PLATE inactive; negative | Test System: AMES SALMONELLA TYPHIMURIUM, Strain/Indicator: TA1538, Metabolic Activation: RAT, LIVER, S-9, AROCLOR 1254, Method: STANDARD PLATE inactive; negative | Test System: CHINESE HAMSTER OVARY, Strain/Indicator: CHO-K1-BH4, Metabolic Activation: NONE inactive; negative | Test System: CHINESE HAMSTER OVARY, Strain/Indicator: CHO-K1-BH4, Metabolic Activation: RAT, LIVER, S-9, AROCLOR 1254 inactive; negative

O=C(O)/C(Cl)=C(\C(=O)O)C(Cl)Cl
inactive: Test System: AMES SALMONELLA TYPHIMURIUM, Strain/Indicator: TA97, Metabolic Activation: NONE, Method: STANDARD PLATE inactive; negative | Test System: AMES SALMONELLA TYPHIMURIUM, Strain/Indicator: TA97, Metabolic Activation: RAT, LIVER, S-9, PHENOBARBITAL, Method: STANDARD PLATE inactive; negative | [1] inactive; negative | [2] inactive; negative | Test System: AMES SALMONELLA TYPHIMURIUM, Strain/Indicator: TA98, Metabolic Activation: RAT, LIVER, S-9, PHENOBARBITAL, Method: STANDARD PLATE inactive; negative | [3] inactive; negative | Test System: AMES SALMONELLA TYPHIMURIUM, Strain/Indicator: TA100, Metabolic Activation: RAT, LIVER, S-9, PHENOBARBITAL, Method: STANDARD PLATE inactive; negative | Test System: AMES SALMONELLA TYPHIMURIUM, Strain/Indicator: TA102, Metabolic Activation: NONE, Method: STANDARD PLATE inactive; negative | Test System: AMES SALMONELLA TYPHIMURIUM, Strain/Indicator: TA102, Metabolic Activation: RAT, LIVER, S-9, AROCLOR 1254, Method: STANDARD PLATE inactive; negative
